Series [1] deals with Trypanosoma cruzi. Description: Antitrypanosomal activity against clone C4 Trypanosoma cruzi Tulahuen expressing LacZ. Format: functional, organism-based. As to conditions: Trypanosoma cruzi, Tulahuen; read-out: IC50.
Series [2] deals with Trypanosoma brucei rhodesiense. Nature of the series: Antitrypanosomal activity against Trypanosoma brucei rhodesiense STIB900. Format: functional, organism-based. As to conditions: Trypanosoma brucei, STIB900; read-out: IC50.
The test system of series [3] is Trypanosoma brucei brucei. Description: Antitrypanosomal activity against Trypanosoma brucei brucei. Format: functional, organism-based. Conditions: Trypanosoma brucei; read-out: IC50.
The subject of series [4] is Leishmania donovani. Nature of the series: Antileishmanial activity against axenic amastigotes of Leishmania donovani. Format: functional, organism-based. As to conditions: Leishmania donovani; read-out: IC50.
Series [5] deals with Leishmania major. Description: Antileishmanial activity against promastigotes of Leishmania major. The class given is functional, organism-based. As to conditions: Leishmania major; read-out: IC50.
For series [6], the system named is Plasmodium falciparum. Description: Antiplasmodial activity against Plasmodium falciparum K1. Format: functional, organism-based.
Series [7] relates to L6. Nature of the series: Cytotoxicity against rat L6 cells. The class given is cell-based.
Series [8] is described as follows: Selectivity index, ratio of IC50 for rat L6 cells to IC50 for Plasmodium falciparum K1. The class given is toxicity, cell-based. As to conditions: read-out: Ratio IC50.

Drawing on ChEMBL document CHEMBL1275325, “QSAR guided synthesis of simplified antiplasmodial analogs of naphthylisoquinoline alkaloids” (Eur J Med Chem, 2010), this text covers IC50 and selectivity ratio for 3 molecules.

Molecules are shown by their SMILES.

As usually defined, the IC50 is the concentration needed to halve the response being measured. Consider `CC1=N[C@H](C)Cc2c(-c3ccc(C(F)(F)F)cc3)ccc(O)c21`, for which the IC50 in series [1] is 19.2 µM; in series [2], 14.8 µM; in series [3] it was 15.9 µM; in series [4] it was 35.1 µM; in series [5], above 100 µM; in series [6], 0.46 µM. Inhibition in series [7] was half-maximal at 96.8 µM (IC50). Also, the selectivity ratio in series [8] came out at 210.
`CC1=N[C@H](C)Cc2c(-c3ccc(C)cc3)ccc(O)c21`: the IC50 in series [1] was 39.3 µM; in series [2], 7.12 µM; in series [3], 32 µM; in series [4] it was 52 µM; in series [5] it was above 86 µM; in series [6], 0.437 µM. Moreover, in series [7], the IC50 is above 100 µM. Further, the selectivity ratio in series [8] is above 229.
In the case of `CC1=N[C@H](C)Cc2c(-c3ccc4ccccc4c3)ccc(O)c21`, the IC50 in series [1] was determined as 16.7 µM; in series [2], 1.01 µM; in series [3] it was 25.4 µM; in series [4], 38.2 µM; in series [5], 34.7 µM; in series [6] it was 0.476 µM. Moreover, 72.5 µM corresponded to half-maximal inhibition in series [7] (IC50). Further, in series [8], the selectivity ratio was determined as 152.
